≈ marks a conversion by molar mass, not a printed value. Calls of active or inactive are those of the source. The rule behind the calls is not given here.
Columns and labels:
Homo sapiens [1] = species: Homo sapiens; assay: Immunomodulatory activity in resting HMNC assessed as IFN-gamma production at 10 ug/mL after 3 days by EIA realtive to control; assay type: functional
Homo sapiens [2] = species: Homo sapiens; assay: Induction of resting HMNC proliferation assessed as [3H]thymidine uptake at 10 ug/mL after 3 days by lymphoproliferation test relative to control; assay type: functional
Homo sapiens [3] = species: Homo sapiens; assay: Immunomodulatory activity in phytochemagglutininin-stimulatedHMNC assessed as IFN-gamma production at 10 ug/mL after 3 days by EIA realtive to control; assay type: functional
[4] = Induction of phytohemagglutininin-activated HMNC proliferation assessed as [3H]thymidine uptake after 3 days by lymphoproliferation test; assay type: functional, Homo sapiens
Homo sapiens [5] = species: Homo sapiens; assay: Induction of phytohemagglutininin-activated HMNC proliferation assessed as [3H]thymidine uptake at 10 ug/mL after 3 days by lymphoproliferation test relative to control; assay type: functional
[6] = Induction of resting HMNC proliferation assessed as [3H]thymidine uptake after 3 days by lymphoproliferation test; assay type: functional, Homo sapiens
[7] = (§1) Immunomodulatory activity in phytochemagglutininin-stimulatedHMNC assessed as IFN-gamma production after 3 days by EIA; assay type: functional, Homo sapiens
Homo sapiens [8] = species: Homo sapiens; assay: as §1; assay type: functional
[9] = (§2) Immunomodulatory activity in resting HMNC assessed as IFN-gamma production after 3 days by EIA; assay type: functional, Homo sapiens
Homo sapiens [10] = species: Homo sapiens; assay: as §2; assay type: functional

EC50 [7] [µg/mL] | EC50 [9] [µg/mL] | SMILES | Activity (Homo sapiens [1]) | Activity (Homo sapiens [2]) | Activity (Homo sapiens [3]) | EC50 [4] [µg/mL] | Activity (Homo sapiens [5]) | EC50 [6] [µg/mL] | Activity (Homo sapiens [8]) | Activity (Homo sapiens [10])
2.8 (≈ 7.9 µM) | 3.9 (≈ 11 µM) | O=C(/C=C/c1ccc(O)c(O)c1)O[C@@H]1C[C@](O)(C(=O)O)C[C@@H](O)[C@H]1O [CHLOROGENIC ACID] | 38.5 pg/mL | 910 cpm | Active | 4.9 (≈ 13.8 µM) | 97.9% | 1.54 (≈ 4.35 µM) | Dose-dependent effect | Dose-dependent effect
– | – | C[C@@H]1O[C@@H](OC[C@H]2O[C@@H](Oc3c(-c4ccc(O)c(O)c4)oc4cc(O)cc(O)c4c3=O)[C@H](O)[C@@H](O)[C@@H]2O)[C@H](O)[C@H](O)[C@H]1O | – | inactive | – | – | inactive | – | – | –
– | – | O=C(O)/C=C/c1ccc(O)c(O)c1 | inactive | inactive | inactive | – | inactive | – | – | –
– | – | CCOC(=O)[C@]1(O)C[C@H](OC(=O)/C=C/c2ccc(O)c(O)c2)[C@@H](OC(=O)/C=C/c2ccc(O)c(O)c2)[C@@H](O)C1 | – | inactive | – | – | inactive | – | – | –
5 (≈ 9.68 µM) | 1.25 (≈ 2.42 µM) | O=C(/C=C/c1ccc(O)c(O)c1)O[C@H]1[C@@H](OC(=O)/C=C/c2ccc(O)c(O)c2)C[C@](O)(C(=O)O)C[C@@H]1O | 30.5 pg/mL | 726 cpm | Active | 8.1 (≈ 15.7 µM) | 78.4% | 4.4 (≈ 8.52 µM) | Dose-dependent effect | Dose-dependent effect
– | – | COC(=O)[C@]1(O)C[C@H](OC(=O)/C=C/c2ccc(O)c(O)c2)[C@@H](O)[C@@H](OC(=O)/C=C/c2ccc(O)c(O)c2)C1 | – | inactive | – | – | inactive | – | – | –
– | – | O=C(/C=C/c1ccc(O)c(O)c1)O[C@@H]1C[C@](O)(C(=O)O)C[C@@H](OC(=O)/C=C/c2ccc(O)c(O)c2)[C@H]1O | – | inactive | – | – | inactive | – | – | –
– | – | O=C(/C=C/c1ccc(O)c(O)c1)O[C@@H]1[C@@H](OC(=O)/C=C/c2ccc(O)c(O)c2)C[C@@](O)(C(=O)O)C[C@@H]1O | – | inactive | – | – | inactive | – | – | –

From ChEMBL document CHEMBL1157280, “Immunomodulatory principles of Dichrocephala bicolor” (J Nat Prod, 1999)
